Measured values: US20020187925A1, “Modulating the activity of hormones or their receptors - peptides, antibodies, vaccines and uses thereof” (priority 1996, published 2002)
Non-standard residues stand in square brackets, D forms with d. No end group written: not given here. NMeY = CN[C@@H](Cc1ccc(O)cc1)C(=O)O

How the values were obtained:
[1] = Example 22: pregnant pigs immunised twice in last trimester; anti-SRIF antibodies and piglet growth rates; assay type: in vivo; details: for absolute growth rates of the piglets: birth to weaning, non-immunised control 165; for anti-SRIF antibodies in colostrum and milk of the sow and in blood and gut scrapings of piglets: piglets at 3 days and 21 days of age, antigen in the preferred oil
Description: The absolute growth rates of the piglets from birth to weaning were: […]

[2] = Example 18: liveweights of piglets of immunised sows; assay type: in vivo, pigs
Description: This experiment sought to study the effects pre-farrowing immunisation of sows with SRIF-conjugate vaccine, or FEEDMIZA vaccine on the subsequent patterns of liveweight gain of their sucking piglets to weaning at 3 weeks of age, and for the post-weaning period The experiment monitored the piglets which were the subject of the previous experiment.
The piglets (8 per litter) on each of the 5 sows in the treatment groups (non-immunised, SRIF-conjugate immunised and FEEDMZA-immunised) were individually eartagged for identification, and were weighed at birth, 7, 14, 21 days (the day of weaning) and 35 days of age (2 weeks post-weaning).
During lactation the piglets had ready access to a creep area which was warmed by an infra-red lamp, water ad libitum and creep feed granules (Barastoc, Melbourne) for the period of 18-21 days of age. They had no access to their mothers feed during the period of lactation
At weaning each litter of piglets was placed in a flatdeck weaning cage with 50% of the floor being bedding area, and 50% woven wire mesh. The cage was provided with a small silo feeder containing the same creep/weaner feed which had been offered to the piglets for the 3 days prior to weaning. Feed and fresh drinking water were offered ad libitum.

[3] = Example 16: pregnant gilts immunised with FEEDMIZA or SRIF-conjugate; liveweight gain, feed conversion; assay type: in vivo, pigs
Experimental: This experiment was designed to measure the effects of vaccinating pregnant gilts with FEEDMIZA by the subcutaneous route during first pregnancy. Opportunity was taken to compare any response to FEEDMIZA with response to a SRIF-conjugate vaccine delivered in the same delivery vehicle as peptide No.1. For that comparison the quantity of antigen was standardised at 100 μg of SRIF in the SRIF-conjugate, and 100 μg of the FEEDMIZA antigen.
Twenty four Landrace X Large White female hybrid gilts were selected, mated and held in conventional dry sow stalls. They were randomly assigned to 3 treatment groups, viz:
The gilts were immunised by subcutaneous injection of 3 ml of the relevant antigen at the neck-on the day of mating.
The animals were held in conventional single dry sow stalls. At 30 days of pregnancy the treatment groups were reduced to 5 confirmed pregnant animals per treatment group. Subsequent vaccinations were performed at weeks 6, 9 and 12 of pregnancy. Each gilt was fed 3 kg of feed (Breedmore sow ration, Barastoc, Melbourne) each day from mating until farrowing. Each animal was weighed at mating, and at intervals of 3 weeks until farrowing.

[4] = Example 17: sows of Example 16 during lactation; liveweight loss; assay type: in vivo, pigs
Description: This experiment was a continuation of the trial of Example 16. It sought to observe the rate of liveweight gain of piglets during the lactation period up to weaning for piglets whose dams were immunised during gestation with FEEDMIZA, or with a SRIF-conjugate vaccine, using piglets being reared by non-immunised dams as controls.
Sows from Example 16 continued to be reared without any further immunisations or manipulations, with the exception that;
a) daily feed offered was increased to 6 kg per head from farrowing to weaning 21 days later.
b) 3 days after farrowing the number of piglets on each sow was reduced to 8 to ensure that each litter of pigs in the experiment was benefiting from the combined effects of the quantity of milk produced, and ingested any antibodies that might be in them, without confounding influences of varying litter sizes, social interactions, and competition for teats. Sows were weighed at weaning.
Piglets were individually identified at birth, and were weighed at birth, and each 7 days until weaning at 21 days of age. All piglets received a routine oral dose of broad spectrum antibiotic (Tribrissen Piglet Suspension, Intervet, Melbourne) at three days of age, as well as an intramuscular supplemental iron injection Pignaemia, Intervet, Melbourne)
Water was available ad libitum to sows and piglets at all times.

[5] = Immunisation of growing lambs with antigen in oil; assay type: in vivo
Experimental: When this antigen was injected three times into growing lambs with the preferred delivery vehicle (oil), anti-SRIF and anti-cholecystokinin antibodies were detectable at 84 days of age. By this time, the immunised lambs had grown an average of 20% more than non-immunised lambs.

SRIF = assay: Example 23: levels of anti-SRIF antibodies in gut, plasma, milk; assay type: in vivo, pigs; details: for Gut IgA anti-SRIF antibodies / Gut IgG anti-SRIF antibodies / Plasma IgA anti-SRIF antibodies / Plasma IgG anti-SRIF antibodies: piglets
Description: Sows immunized twice in the last trimester of pregnancy with SEQ ID No 3 produced piglets which were on average 27% heavier at weaning (at 21 days of age) than the offsprings of sows immunised with SRIF 14 conjugate vaccine. The levels of anti-SRIF antibodies measured are given below:
Significant quantities of antibodies to SRIF were detected in the plasma and gut scrapings of piglets sucking sows immunised with SRIF/BSA or SEQ ID NO:3 emulsified in the oil of the invention.

[6] = Solubility in sterile saline; assay type: physicochemical; details: sterile physiological saline / sterile saline solutions
[7] = Example 23: weaning weight of piglets of immunised sows; assay type: in vivo, pigs; details: 21 days of age; sows immunized twice in last trimester
Description: Sows immunized twice in the last trimester of pregnancy with SEQ ID No 3 produced piglets which were on average 27% heavier at weaning (at 21 days of age) than the offsprings of sows immunised with SRIF 14 conjugate vaccine. The levels of anti-SRIF antibodies measured are given below: […]

[8] = Growth of piglets suckling dams vaccinated in last trimester of pregnancy; assay type: in vivo, pigs; details: birth to weaning
Description: Piglets suckling dams which had been vaccinated with this molecule in the last trimester of pregnancy grew an average of 40% faster from birth to weaning than did corresponding piglets which were suckling non-immunised dams.

[9] = Immunisation of male pigs from 12 weeks of age; assay type: in vivo
Description: Male pigs immunised with this peptide three times from 12 weeks of age grew an average of […] faster than non-immunised pigs to 24 weeks of age, and the testicle size of the immunised pigs was approximately 50% the size of those of the non-immunised animals.

## F-W-K-T-S-G-G (FWKTSGG) [SEQ ID NO:4]
[1]
  absolute growth rates of the piglets: 240 g per day
  anti-SRIF antibodies in colostrum and milk of the sow and in blood and gut scrapings of piglets: produced anti-SRIF antibodies

## SRIF-conjugate: SRIF-conjugate vaccine delivered in the same delivery vehicle as peptide No.1 (SANSNPAMAPRERKAGCKNFFWKTFTSC; ends and bridges not checked; also: SRIF-conjugate vaccine (conjugated, site not given here))
[2]; 21 days of age
  liveweights of the piglets at weaning: 7.32 ± 1.30 kg
[2]; 35 days of age
  Liveweights of the piglets 2 weeks after weaning: 8.89 ± 1.33 kg
[2]; born to immunised sows
  mean birthweights of the piglets: 1.40 ± 0.29 kg
[3]; mating to parturition, 345 Kg feed, non-immunised 60
  average liveweight gain per head during pregnancy: 75 kg
[3]; weeks 12 and 15 of pregnancy (SRIF: from 9 weeks)
  liveweight relative to non-immunised sows: at no point was this difference ever stastically significant
[4]; sows
  Farrowing weight: 154 ± 27.68 kg
  Weaning weight: 166.4 ± 26 kg
[4]; sows, farrowing to weaning
  Weight loss: 7.2
[4]; three weeks lactation period, non-immunised 10.8
  mean loss of liveweight of sows: 12 kg

## A-Y-M-G-W-S-C-T-K-W-F (AYMGWSCTKWF) [SEQ ID NO:52]
[5]; by 84 days of age
  growth more than non-immunised lambs: 20%
[5]; lambs injected three times in oil, at 84 days of age
  anti-SRIF and anti-cholecystokinin antibodies: detectable

## SRIF/BSA: SRIF 14 (native somatostatin) conjugate presented with the preferred oil [reference compound]
SRIF; DAY 3
  Milk/colostrum IgA anti-SRIF antibodies: 0.029 ± 0.035 OD @ 405 nm
  Sow's milk IgG anti-SRIF antibodies: 1.6 ± 0.22 OD @ 405 nm
  Gut IgA anti-SRIF antibodies: 0.189 ± 0.133 OD @ 405 nm
  Gut IgG anti-SRIF antibodies: 0.684 ± 0.548 OD @ 405 nm
  Plasma IgA anti-SRIF antibodies: 1.067 ± 0.469 OD @ 405 nm
  Plasma IgG anti-SRIF antibodies: 1.38 ± 0.44 OD @ 405 nm
SRIF; DAY 21
  Gut IgA anti-SRIF antibodies: 0.037 ± 0.05 OD @ 405 nm
  Gut IgG anti-SRIF antibodies: 0.259 ± 0.18 OD @ 405 nm
  Plasma IgA anti-SRIF antibodies: 0.798 ± 0.49 OD @ 405 nm
  Plasma IgG anti-SRIF antibodies: 1.779 ± 0.13 OD @ 405 nm
[1]
  absolute growth rates of the piglets: 180 g per day
  anti-SRIF antibodies in colostrum and milk of the sow and in blood and gut scrapings of piglets: produced anti-SRIF antibodies

## LCFWKTC [SEQ ID NO:1]
[6]
  solubility in sterile saline: relatively soluble

## C-F-W-K-T-C-S-G (CFWKTCSG; not fully specified (bridges); printed as C-F-W-K-T-C-S-G; cysteine pairing not given here) [SEQ ID NO:3]
SRIF; DAY 3
  Milk/colostrum IgA anti-SRIF antibodies: 0.026 ± 0.028 OD @ 405 nm
  Sow's milk IgG anti-SRIF antibodies: 1.4 ± 0.162 OD @ 405 nm
  Gut IgA anti-SRIF antibodies: 0.12 ± 0.157 OD @ 405 nm
  Gut IgG anti-SRIF antibodies: 0.51 ± 0.21 OD @ 405 nm
  Plasma IgA anti-SRIF antibodies: 1.43 ± 0.217 OD @ 405 nm
  Plasma IgG anti-SRIF antibodies: 0.9 ± 0.13 OD @ 405 nm
SRIF; DAY 21
  Gut IgA anti-SRIF antibodies: 0.10 ± 0.087 OD @ 405 nm
  Gut IgG anti-SRIF antibodies: 0.123 ± 0.09 OD @ 405 nm
  Plasma IgA anti-SRIF antibodies: 0.567 ± 0.21 OD @ 405 nm
  Plasma IgG anti-SRIF antibodies: 2.12 ± 0.23 OD @ 405 nm
[1]
  absolute growth rates of the piglets: 275 g per day
  anti-SRIF antibodies in colostrum and milk of the sow and in blood and gut scrapings of piglets: produced anti-SRIF antibodies
[7]
  piglets heavier at weaning than offspring of sows immunised with SRIF 14 conjugate vaccine: 27%

## NMe-Y-D-T-K-V-F-C-S ([NMeY]DTKVFCS) [SEQ ID NO:51]
[8]
  growth of suckling piglets faster than piglets suckling non-immunised dams: 40%
[6]
  solubility in sterile saline: very poorly soluble

## F-W-K-T-S-T-K-T-S-T-K-W-F (FWKTSTKTSTKWF) [SEQ ID NO:5]
[1]
  anti-SRIF antibodies in colostrum and milk of the sow and in blood and gut scrapings of piglets: produced anti-SRIF antibodies

## F-W-K-T-S-K-H-W-S-Y-G-L-R-D-G-C (FWKTSKHWSYGLRDGC) [SEQ ID NO:53]
[9]; male pigs immunised three times from 12 weeks, to 24 weeks of age
  grew faster than non-immunised pigs: 12 weeks
[9]; male pigs, 24 weeks of age
  testicle size relative to non-immunised animals: approximately 50%
